Values joined by “and” are separate entries in the source; they are usually repeats but may differ in a detail not shown here. Equal entries are not always repeated. Where two headings read alike, the source gives them in different places.
Legend:
TRα and TRβ [1] = experiment: GH3.TRE-Luc TR reporter assay, antagonist setup (0.25 nM T3); format: cell-based, rat
TRα and TRβ [2] = experiment: GH3.TRE-Luc TR reporter assay, agonist setup; format: cell-based, rat; conditions: vs 0.1% DMSO
firefly luciferase = molecular target: T1, firefly luciferase (Photinus pyralis, UniProt P08659); experiment: Luciferase inhibition assay in GH3.TRE-Luc cell lysates; format: biochemical; conditions: cell lysate; for inhibition at 50 µM: read-out: inhibition of firefly luciferase luminescence signal
T1 construct: Only implied by 'CP' in the vector name, from my own knowledge; expressed in transfected cells; host or cells: GH3.TRE-Luc cells induced with 0.25 nM T3, lysate
Procedure: Serial dilutions for each treatment were prepared in the cell lysate and incubated at room temperature for 30 min.

AR-EcoScreen cells = experiment: Cell viability (resazurin) in AR-EcoScreen cells; conditions: agonist assay
human (h)AR = molecular target: T2, human (h)AR (Homo sapiens, UniProt P10275); experiment: AR-EcoScreen hAR transcriptional activation assay, antagonist setup (500 pM DHT); format: cell-based
T2 sequence (P10275 1-920): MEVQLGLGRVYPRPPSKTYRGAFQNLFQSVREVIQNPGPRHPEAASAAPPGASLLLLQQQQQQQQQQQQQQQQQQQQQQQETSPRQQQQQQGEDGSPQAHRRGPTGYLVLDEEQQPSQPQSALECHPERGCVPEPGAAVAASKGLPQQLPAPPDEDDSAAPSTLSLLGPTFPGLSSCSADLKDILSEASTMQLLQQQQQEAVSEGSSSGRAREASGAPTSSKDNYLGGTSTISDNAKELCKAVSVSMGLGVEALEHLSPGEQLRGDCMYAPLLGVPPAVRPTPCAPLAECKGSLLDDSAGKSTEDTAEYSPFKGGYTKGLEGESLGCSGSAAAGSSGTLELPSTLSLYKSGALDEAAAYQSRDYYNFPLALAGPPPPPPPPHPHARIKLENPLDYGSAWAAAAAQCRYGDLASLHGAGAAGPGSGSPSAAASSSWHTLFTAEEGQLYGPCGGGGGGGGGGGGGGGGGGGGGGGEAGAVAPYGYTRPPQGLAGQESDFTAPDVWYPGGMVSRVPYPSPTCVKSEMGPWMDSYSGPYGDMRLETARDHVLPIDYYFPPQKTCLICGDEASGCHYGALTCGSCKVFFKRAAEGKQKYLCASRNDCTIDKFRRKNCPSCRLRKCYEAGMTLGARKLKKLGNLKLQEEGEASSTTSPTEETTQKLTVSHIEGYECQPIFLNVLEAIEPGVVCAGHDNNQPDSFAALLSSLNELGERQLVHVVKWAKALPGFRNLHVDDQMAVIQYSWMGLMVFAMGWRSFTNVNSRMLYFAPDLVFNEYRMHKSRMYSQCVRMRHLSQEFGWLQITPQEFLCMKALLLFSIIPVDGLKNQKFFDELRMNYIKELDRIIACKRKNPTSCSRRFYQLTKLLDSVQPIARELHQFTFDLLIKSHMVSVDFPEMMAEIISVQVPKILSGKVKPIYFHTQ

AR = molecular target: T3, AR (Rattus norvegicus, UniProt P15207); experiment: PolarScreen AR Competitor binding affinity assay
T3 construct: purchased Invitrogen
T3 sequence (P15207 651-902 limits assumed): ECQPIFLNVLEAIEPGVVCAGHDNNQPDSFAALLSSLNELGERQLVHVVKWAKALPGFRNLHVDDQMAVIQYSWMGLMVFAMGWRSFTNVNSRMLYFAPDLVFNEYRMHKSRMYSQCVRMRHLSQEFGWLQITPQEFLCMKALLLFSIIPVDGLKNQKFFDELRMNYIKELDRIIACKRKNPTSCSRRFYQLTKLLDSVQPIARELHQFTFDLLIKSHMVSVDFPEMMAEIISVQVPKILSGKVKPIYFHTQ

stickleback AR = test system: stickleback AR; design: method as in Lange et al. 2015; conditions: at 10 μM; ref Lange et al. 2015; cited from earlier work
Androgen receptor [3] = conditions: ref Rostkowski et al. 2011, cited from earlier work
Androgen receptor [4] = conditions: ref Rostkowski et al. 2011, cited from earlier work; remark: listed apart in the source
GR [5] = molecular target: T4, GR (Homo sapiens, UniProt P04150); experiment: PolarScreen GR Competitor binding affinity assay; design: purchased Invitrogen; conditions: for binding affinity assay on isolated GR, result: in words, tested up to 10 μM
T4 sequence (P04150 1-777): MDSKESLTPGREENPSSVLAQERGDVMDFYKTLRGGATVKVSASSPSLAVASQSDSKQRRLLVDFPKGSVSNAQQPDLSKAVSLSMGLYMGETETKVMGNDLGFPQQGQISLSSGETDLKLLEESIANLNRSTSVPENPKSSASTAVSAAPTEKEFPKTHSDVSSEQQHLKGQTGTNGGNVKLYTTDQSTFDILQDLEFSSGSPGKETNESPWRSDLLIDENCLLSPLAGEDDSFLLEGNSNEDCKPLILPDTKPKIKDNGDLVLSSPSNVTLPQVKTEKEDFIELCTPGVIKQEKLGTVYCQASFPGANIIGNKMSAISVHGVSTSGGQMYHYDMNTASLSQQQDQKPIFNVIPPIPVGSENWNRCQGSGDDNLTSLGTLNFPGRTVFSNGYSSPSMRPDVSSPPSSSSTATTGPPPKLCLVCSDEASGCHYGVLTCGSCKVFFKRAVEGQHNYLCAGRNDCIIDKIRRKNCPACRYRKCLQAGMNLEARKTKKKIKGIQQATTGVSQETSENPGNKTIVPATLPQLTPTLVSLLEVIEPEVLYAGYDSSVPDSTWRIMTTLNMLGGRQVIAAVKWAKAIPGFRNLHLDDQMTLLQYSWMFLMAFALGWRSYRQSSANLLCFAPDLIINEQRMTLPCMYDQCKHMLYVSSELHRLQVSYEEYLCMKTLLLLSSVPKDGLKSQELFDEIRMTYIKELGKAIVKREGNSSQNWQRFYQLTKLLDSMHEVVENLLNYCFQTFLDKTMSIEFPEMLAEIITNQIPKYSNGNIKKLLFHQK

hERα-HeLa-9903 cells = experiment: Cell viability (resazurin) in hERα-HeLa-9903 cells; conditions: hERα-HeLa-9903, ERα agonist dose-response
GR [6] = molecular target: T4, GR; experiment: MDA-kb2 GR reporter assay, antagonist setup (500 nM HC); format: cell-based; design: constitutively expressed high levels of functional GR and AR; host or cells: MDA-kb2
AroB transcription = conditions: 1 nM E2 alone; zebrafish embryos; ref Chung et al. 2011; cited from earlier work
Glucocorticoid receptor = conditions: MDA-kb2 at 5 μM; ref Kolšek et al. 2014a; cited from earlier work
Thyroid receptor = conditions: ZFL cell line; ref Zhou et al. 2017; cited from earlier work
[7] = ref Sandborgh-Englund et al. 2006, cited from earlier work
GR [8] = molecular target: T4, GR; experiment: MDA-kb2 GR reporter assay, agonist setup (with FLU); format: cell-based; design: constitutively expressed high levels of functional GR and AR; host or cells: MDA-kb2; conditions: 10 μM; vs 0.1% DMSO with 5 μM FLU
[9] = 0.25 nM T3; read-out: TR antagonist IC50

T1 sequence (P08659 whole entry): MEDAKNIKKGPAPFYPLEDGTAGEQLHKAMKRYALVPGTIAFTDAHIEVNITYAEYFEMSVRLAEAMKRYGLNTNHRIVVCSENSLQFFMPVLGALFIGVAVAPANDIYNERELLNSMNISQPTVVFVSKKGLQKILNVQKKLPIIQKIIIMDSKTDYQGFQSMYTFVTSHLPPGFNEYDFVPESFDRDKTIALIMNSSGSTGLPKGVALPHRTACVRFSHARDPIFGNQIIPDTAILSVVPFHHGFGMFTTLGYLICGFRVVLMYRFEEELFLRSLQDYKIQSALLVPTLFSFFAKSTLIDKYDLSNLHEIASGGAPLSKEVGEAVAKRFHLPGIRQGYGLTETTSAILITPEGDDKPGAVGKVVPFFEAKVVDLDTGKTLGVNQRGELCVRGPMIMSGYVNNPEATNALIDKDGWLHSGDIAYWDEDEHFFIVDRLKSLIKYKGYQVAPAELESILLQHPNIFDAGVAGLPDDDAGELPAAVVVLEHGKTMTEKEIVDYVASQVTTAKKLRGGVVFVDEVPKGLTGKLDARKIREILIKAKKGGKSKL

CC(C)(c1ccc(O)cc1)c1ccc(O)cc1 [BPA, bisphenol A, reference compound]
IC50 (TRα and TRβ [1]; read-out: TR antagonist IC50; 0.25 nM T3): 41900 nM

Oc1c(Br)cc(Cl)cc1Cc1cc(Cl)cc(Br)c1O [Bromochlorophene, 2,2’-methylenebis(6-bromo-4-chlorophenol)]
baseline TR-mediated transcriptional activity lower than vehicle control (agonist setup) (TRα and TRβ [2]; 1 μM): > 50%
baseline TR-mediated transcriptional activity lower than vehicle control (agonist setup) (TRα and TRβ [2]; 10 μM): > 50%
IC50 (TRα and TRβ [1]; [9]): 500 nM and 510 nM
lower TR RTA than spike-in control (TRα and TRβ [1]; 10 μM; vs 0.1% DMSO with 0.25 nM T3): 92.9%
TR antagonist activity, call (TRα and TRβ [1]; GH3.TRE-Luc): Antagonist
inhibition of firefly luciferase luminescence signal (firefly luciferase; 50 μM): 26.1%
highest noncytotoxic concentration (AR-EcoScreen cells): 2.5 µM

Oc1ccc(Cl)cc1Cc1ccccc1 [Chlorophene, 2-Benzyl-4-chlorophenol]
lower AR RTA than spike-in control (human (h)AR; 10 μM, vs 0.1% DMSO with 500 pM DHT): > 90%
IC50 (human (h)AR; AR antagonist IC50, AR-EcoScreen, 500 pM DHT): 2360 nM and 2400 nM
AR antagonist activity, call (human (h)AR; AR-EcoScreen): Antagonist
EC50 (AR): 2160 nM
binding affinity assay on isolated AR, result (AR; in words, tested up to 10 μM): positive
TR antagonist activity, call (TRα and TRβ [1]; GH3.TRE-Luc): Antagonist
concentration with TR antagonist activity (TRα and TRβ [1]; GH3.TRE-Luc): 10 µM
inhibition at 50 µM (firefly luciferase): ~12%
effect on stickleback AR (stickleback AR): Antagonist at 10μM in a stickleback AR reporter assay ([Lange et al. 2015])
IC50 (Androgen receptor [3]; antiandrogenic, read-out: anti-YAS IC50): 540 nM
effect on AR, yeast based assay (Androgen receptor [3]): Antagonist ([Rostkowski et al. 2011])
IC50 (Androgen receptor [4]; antiandrogenic, read-out: AR-CALUX IC50): 800 nM
effect on AR in AR-CALUX assay (Androgen receptor [4]): Antagonist in AR-CALUX assay ([Rostkowski et al. 2011])
binding affinity assay on isolated GR, result (GR [5]): positive
EC50 (GR [5]; read-out: binding to isolated GR, EC50): 10500 nM
highest tested concentration as limited by precipitation and cytotoxicity (hERα-HeLa-9903 cells): 50 µM
GR activity in MDA-kb2 cell line, call (GR [6]; 10 μM): Negative

C[C@]12CC[C@@H]3c4ccc(O)cc4CC[C@H]3[C@@H]1CC[C@@H]2O [E2, 17β-estradiol, reference compound]
increase in AroB transcription (AroB transcription): 8 fold

Oc1cc(Cl)ccc1Oc1ccc(Cl)cc1Cl [Triclosan, 5-Chloro-2-(2,4-dichlorophenoxy) phenol]
baseline TR-mediated transcriptional activity lower than vehicle control (agonist setup) (TRα and TRβ [2]; 10 μM): > 50%
IC50 (TRα and TRβ [1]; [9]): 3600 nM and 3610 nM
lower TR RTA than spike-in control (TRα and TRβ [1]; 5 μM; vs 0.1% DMSO with 0.25 nM T3): 71.9%
TR antagonist activity, call (TRα and TRβ [1]; GH3.TRE-Luc): Antagonist
concentration with TR antagonist activity (TRα and TRβ [1]; GH3.TRE-Luc): 5 µM
inhibition at 50 µM (firefly luciferase): ~12%
effect on GR (Glucocorticoid receptor): No effect in MDA-kb2 at 5μM ([Kolšek et al. 2014a])
effect on TR (Thyroid receptor): No effect in ZFL cell line ([Zhou et al. 2017])
effect on stickleback AR (stickleback AR): Antagonist at 10μM in stickleback AR reporter assay ([Lange et al. 2015])
peak plasma concentration ([7]; 10 healthy volunteers, single dose of mouthwash): 0.5 to 1.2 µM
preexperiment median plasma baseline concentration ([7]; 10 healthy volunteers): 5.5 nM
time of plasma peak after exposure [7]: up to 3 h
EC50 (GR [5]): 27300 nM
binding affinity assay on isolated GR, result (GR [5]): positive
lower GR RTA than vehicle control (agonist assay) (GR [8]): 53.6%
lower GR RTA than spike-in control (GR [6]; 10 μM, vs 0.1% DMSO with 500 nM HC): 53.2%
GR antagonist activity, call (GR [6]; MDA-kb2): Antagonist

Reference: paper PMC7567334 (Environmental Health Perspectives, 2020)
